Laboratory results from patent publication EP0521963B1, “CRF ANALOGS” (THE SALK INSTITUTE FOR BIOLOGICAL STUDIES, priority 1990, dated 1998).

System: cultured rat pituitary cells
Test: Stimulation of secretion of ACTH and β-endorphin by cultured rat pituitary cells (procedure of Endocrinology, 91, 562 (1972))
Assay type: cell-based
Settings: compared against synthetic oCRF, read-out: Half-maximal responses
Text: This synthetic peptide is examined for its effects on the secretion of ACTH and β-endorphin in vitro and also in vivo.

- EC50: ~0.25 nM
SMILES: CC[C@H](C)[C@H](NC(=O)[C@H](CC(=O)O)NC(=O)[C@H](CC(C)C)NC(=O)[C@H](CC(C)C)NC(=O)[C@H](CCCCN)NC(=O)[C@H](CCCNC(=N)N)NC(=O)[C@H](CC(N)=O)NC(=O)[C@H](CO)NC(=O)[C@H](Cc1c[nH]cn1)NC(=O)[C@H](C)NC(=O)[C@H](CCC(N)=O)NC(=O)[C@H](CCC(N)=O)NC(=O)[C@H](C)NC(=O)[C@H](CC(C)C)NC(=O)[C@H](CCC(N)=O)NC(=O)[C@H](CC(=O)O)NC(=O)[C@H](C)NC(=O)[C@H](CCCCN)NC(=O)[C@@H](NC(=O)[C@H](CCSC)NC(=O)[C@H](CCC(=O)O)NC(=O)[C@H](CC(C)C)NC(=O)[C@@H](NC(=O)[C@H](CCC(=O)O)NC(=O)[C@H](CCCNC(=N)N)NC(=O)[C@H](CC(C)C)NC(=O)[C@H](CC(C)C)NC(=O)[C@H](Cc1c[nH]cn1)NC(=O)[C@H](Cc1ccccc1)NC(=O)[C@@H](NC(=O)[C@H](CC(C)C)NC(=O)[C@H](CC(=O)O)NC(=O)[C@H](CC(C)C)NC(=O)[C@H](CO)NC(=O)[C@@H](NC(=O)[C@@H]1CCCN1C(=O)[C@@H]1CCCN1C(=O)[C@H](CCC(=O)O)NC(=O)[C@H](CCC(N)=O)NC(=O)[C@@H](N)CO)[C@@H](C)CC)[C@@H](C)O)C(C)C)[C@@H](C)O)C(=O)N[C@@H](C)C(N)=O [oCRF]
